pIC50: −log10 of the molar value. Read-outs that look alike come from different tables or passages of the source. Blank lines part the entries; values can stand above or below the molecule they belong to.
Key:
[1] = tested on: Spontaneously hypertensive rats (SHR); experiment: Antihypertensive activity in spontaneously hypertensive rats, iv; assay type: in vivo, rat
Experimental: After a 2 day recovery from surgery, three baseline blood pressure measurements were made at 5 min intervals in conscious SHR. Compounds to be tested or vehicle were then administered intravenously in a dose-dependent manner (0.3-10 mg base/kg) while arterial pressure was recorded continuously on a polygraph. The mean arterial pressure response was measured 5 minutes after the administration of each dose of the test compound and the next dose given in a cumulative dose fashion. The response to each dose of the test compound was calculated as the difference from the mean of the three baseline measurements.

[2] = tested on: cGMP-PDE V; experiment: c-GMP-PDE V inhibitory activity; assay type: biochemical, various animal species and man
Experimental: The cGMP-PDE and other PDE isozymes were isolated from cardiovascular tissues (heart and aorta) of various animal species and man by anion-exchange and affinity chromatography as described by Silver et al., Sec. Messeng. Phos. 13:13-25, 1991; PDE activity, in the presence and absence of test compounds was determined essentially as described by Thompson et al., Adv. Cyclic Nucleotide Res. 10:69-92. To determine the potency and selectivity of compounds as PDE inhibitors, compounds are screened for their effect on cyclic nucleotide hydrolysis at 10 μM. […] The IC50 values are calculated from concentration-response curves as described by Tallarida and Murray, Manual of Pharmacologic Calculations with Computer Programs, Procedure 8, Graded Dose-response, pp. 14-19, Springer-Verlag, New York, 1981.

[3] = Rattus norvegicus, 5 min, cumulative dosing, 5 minutes after dose, read-out: % change in mean arterial pressure
[4] = separate experimental runs, first value
[5] = separate experimental runs, second value
[6] = separate experimental runs, third value

- pIC50 [2]: 7.08
SMILES: CCn1ncc2c(NCC3CCCCC3)c3ccccc3nc21 [1(c), 1-ethyl-N-(cyclohexylmethyl)-1H-pyrazolo[3,4-b]quinolin-4-amine]
- change in vivo at 10 mg/kg [1, 3]: -15%

- pIC50 [2]: 6.92
SMILES: CCn1ncc2c(NCC3CCC(CO)CC3)c3ccccc3nc21 (centres unmarked) [6(b), 1-ethyl-N-[(4-hydroxymethylcyclohexyl)methyl]-1H-pyrazolo[3,4-b]quinolin-4-amine]
- change in vivo at 10 mg/kg [1, 3]: -23%

- pIC50 [2]: 7.48
SMILES: CCn1ncc2c(NCC3CCCCC3)c3cc(OC)ccc3nc21 [7(d), 1-ethyl-6-methoxy-N-(cyclohexylmethyl)-1H-pyrazolo[3,4-b]quinolin-4-amine]
- change in vivo at 3 mg/kg [1, 3]: -16%

- pIC50 [2]: 8.82
SMILES: CCn1ncc2c(NCC3CCCCC3)c3cc([N+](=O)[O-])ccc3nc21 [15(c), 1-ethyl-6-nitro-N-(cyclohexylmethyl) -1H-pyrazolo[3,4-b]quinolin-4-amine]
- change in vivo at 3 mg/kg [1, 3]: -18%

- pIC50 [2]: 6.89
SMILES: CCn1ncc2c(NCC3CCCCC3)c3cc(OCC(O)CO)ccc3nc21 (centres unmarked) [17(b), 1-ethyl-6-(2,3-dihydroxypropoxy)-N-(cyclohexylmethyl)-1H-pyrazolo[3,4-b]quinolin-4-amine]
- change in vivo at 10 mg/kg [1, 3]: -6%

- pIC50 [2]: 7.42
SMILES: CCn1ncc2c(NCC3CCCCC3)c3ccc(C(=O)O)cc3nc21 [23(c), 1-ethyl-7-carboxy-N-(cyclohexylmethyl)-1H-pyrazolo[3,4-b]quinolin-4-amine]
- change in vivo at 3 mg/kg [1, 3]: -7%

- pIC50 [2, 4]: 8.08
- pIC50 [2, 5]: 7.94
SMILES: CCn1ncc2c(N[C@@H](C)C3CCCCC3)c3cc(S(C)(=O)=O)ccc3nc21 [37(d), 1-ethyl-6-(methylsulfonyl)-N-[S(+)-1-(cyclohexyl)ethyl]-1H-pyrazolo[3,4-b]quinolin-4-amine]
- change in vivo at 3 mg/kg [1, 3]: -15%
- change in vivo at 10 mg/kg [1, 3]: -18%

SMILES: CCn1ncc2c(NCC3CCCCC3)c3cccc(Br)c3nc21 [44(d), 1-ethyl-8-bromo-N-(cyclohexylmethyl)-1H-pyrazolo[3,4-b]quinolin-4-amine]
- Percent Inhibition cGMP-PDE V ([2]; 0.01 μM): 17%
- Percent Inhibition cGMP-PDE V ([2]; 0.1 μM): 20%
- Percent Inhibition cGMP-PDE V ([2]; 1 μM): 70%

- pIC50 [2]: 7.36
SMILES: CCN(CC)S(=O)(=O)c1ccc2nc3c(cnn3C(C)C)c(NCC3CCCCC3)c2c1 [45(d), 1-isopropyl-6-(diethylaminosulfonyl)-N-(cyclohexylmethyl)-1H-pyrazolo[3,4-b]quinolin-4-amine]

- pIC50 [2]: 7.64
SMILES: CCn1ncc2c(N[C@@H](C)C3CCCCC3)c3cc(-c4noc(C)n4)ccc3nc21 [47(c)]

- pIC50 [2]: 8.27
SMILES: CCn1ncc2c(N[C@@H](C)C3CCCCC3)c3cc(S(=O)(=O)C(F)(F)F)ccc3nc21 [53(c), 1-ethyl-6-(trifluoromethylsulfonyl)-N-[S (+)-1-(cyclohexyl)ethyl]-1H-pyrazolo[3,4-b]quinolin-4-amine]

- pIC50 [2]: 6.52
SMILES: CCn1ncc2c(NCC3CCC(C(=O)OC)CC3)c3ccccc3nc21 (centres unmarked) [Example 3, 1-ethyl-N-[(4-methoxycarbonylcyclohexyl)methyl]-1H-pyrazolo[3,4-b]quinolin-4-amine]

- pIC50 [2]: 5.52
SMILES: CCn1ncc2c(NCC3CC3)c3ccccc3nc21 [Example 4, 1-ethyl-N-(cyclopropylmethyl)-1H-pyrazolo[3,4-b]quinolin-4-amine]

SMILES: CCn1ncc2c(NCC3CCC(C(=O)OCSC)CC3)c3ccccc3nc21 (centres unmarked) [Example 5, 1-ethyl-N-[[4-(methylthiomethoxycarbonyl)cyclohexyl]methyl]-1H-pyrazolo[3,4-b]quinolin-4-amine]
- Percent Inhibition cGMP-PDE V ([2]; 0.1 μM): 4%
- Percent Inhibition cGMP-PDE V ([2]; 1 μM): 34%
- Percent Inhibition cGMP-PDE V ([2]; 10 μM): 81%

- pIC50 [2]: 7.44
SMILES: CCn1ncc2c(NCC3CCCCC3)c3cc(O)ccc3nc21 [Example 8, 1-ethyl-6-hydroxy-N-(cyclohexylmethyl)-1H-pyrazolo[3,4-b]quinolin-4-amine]
- % change in mean arterial pressure or ED25, result in words ([1]; 0.3-10 mg base/kg): Inactive

- pIC50 [2]: 6.62
SMILES: CCn1ncc2c(NCC3CCCCC3)c3cc(OCCN(C)C)ccc3nc21 [Example 12]

- pIC50 [2]: 7.38
SMILES: CCn1ncc2c(NCC3CCCCC3)c3cc(OCC(=O)O)ccc3nc21 [Example 13, 1-ethyl-6-(carboxymethoxy)-N-(cyclohexymethyl)-1H-pyrazolo[3,4-b]quinolin-4-amine]
- change in vivo at 1 mg/kg ([1]; Rattus norvegicus, 5 min, 1 mg/kg, cumulative dosing, 5 minutes after dose, read-out: % change in mean arterial pressure): -10%

- pIC50 [2]: 6.52
SMILES: CCn1ncc2c(NCC3CCCCC3)c3cc(N)ccc3nc21 [Example 20, 1-ethyl-6-amino-N-(cyclohexylmethyl)-1H-pyrazolo[3,4-b]quinolin-4-amine]

SMILES: CCn1ncc2c(NCC3CCCCC3)c3ccc(N)cc3nc21 [Example 25, 1-ethyl-7-amino-N-(cyclohexylmethyl)-1H-pyrazolo[3,4-b]quinolin-4-amine]
- Percent Inhibition cGMP-PDE V ([2]; 0.1 μM): 7%
- Percent Inhibition cGMP-PDE V ([2]; 1 μM): 68%
- Percent Inhibition cGMP-PDE V ([2]; 10 μM): 95%

- pIC50 [2, 4]: 8.59
- pIC50 [2, 5]: 8.28
SMILES: CCn1ncc2c(N[C@@H](C)C3CCCCC3)c3cc(OC)ccc3nc21 [Example 26, 1-ethyl-6-methoxy-N-[S(+)-1-(cyclohexyl)ethyl]-1H-pyrazolo[3,4-b]quinolin-4-amine]

- pIC50 [2, 4]: 6.47
- pIC50 [2, 5]: 6.68
- pIC50 [2, 6]: 6.58
SMILES: CCn1ncc2c(N[C@H](C)C3CCCCC3)c3cc(OC)ccc3nc21 [Example 27, 1-ethyl-6-methoxy-N-[R(-)-1-(cyclohexyl)ethyl]-1H-pyrazolo[3,4-b]quinolin-4-amine]

- pIC50 [2]: 7.52
SMILES: CCn1ncc2c(NCC3CCCCC3)c3cc(C(=O)O)ccc3nc21 [Example 30, 1-ethyl-6-carboxy-N-(cyclohexylmethyl)-1H-pyrazolo[3,4-b]quinolin-4-amine]

- pIC50 [2]: 7.49
SMILES: CCn1ncc2c(NCC3CCCCC3)c3cc(-c4ccncc4)ccc3nc21 [Example 31]

SMILES: CCn1ncc2c(NCC3(O)CCCCC3)c3cc(OC)ccc3nc21 [Example 32, 1-ethyl-6-methoxy-N-[(1-hydroxycyclohexyl)methyl]-1H-pyrazolo[3,4-b]quinolin-4-amine]
- Percent Inhibition cGMP-PDE V ([2]; 0.1 μM): 43%
- Percent Inhibition cGMP-PDE V ([2]; 1 μM): 79%
- Percent Inhibition cGMP-PDE V ([2]; 10 μM): 96%

- pIC50 [2]: 7.04
SMILES: CCn1ncc2c(NCC3CCCCC3)c3cc(OCCN4CCOCC4)ccc3nc21 [Example 33, 1-ethyl-6-[2-(4-morpholinyl)ethoxy]-N-(cyclohexylmethyl)-1H-pyrazolo[3,4-b]quinolin-4-amine]

- pIC50 [2, 4]: 8.07
- pIC50 [2, 5]: 8.02
- pIC50 [2, 6]: 8.02
SMILES: CCn1ncc2c(N[C@H](C)C3CCCCC3)c3cc([N+](=O)[O-])ccc3nc21 [Example 35, 1-ethyl-6-nitro-N-[R (-)-1(cyclohexyl)ethyl]-1H-pyrazolo[3,4-b]quinolin-4amine]

SMILES: C[C@H](Nc1c2ccccc2nc2c1cnn2Cc1ccccc1)C1CCCCC1 [Example 38, 1-benzyl-N-[S (+)-1(cyclohexyl)ethyl]-1H-pyrazolo[3,4-b]quinolin-4-amine]
- Percent Inhibition cGMP-PDE V ([2]; 0.01 μM): 9%
- Percent Inhibition cGMP-PDE V ([2]; 0.1 μM): 22%
- Percent Inhibition cGMP-PDE V ([2]; 1 μM): 77%

- pIC50 [2]: 7.82
SMILES: CCn1ncc2c(N[C@@H](C)C3CCCCC3)c3ccccc3nc21 [Example 39, 1-ethyl-N-[S(+)-1-(cyclohexyl)ethyl]-1H-pyrazolo[3,4-b]quinolin-4-amine]

- pIC50 [2]: 7.57
SMILES: CCn1ncc2c(N[C@@H](C)C3CCCCC3)c3cc(-n4ccnc4)ccc3nc21 [Example 43, 1-ethyl-6-(1-imidazolyl)-N-[S(+)-1-(cyclohexyl)ethyl]-1H-pyrazolo[3,4-b]quinolin-4-amine]

- pIC50 [2]: 9.43
SMILES: CCn1ncc2c(N[C@@H](C)C3CCCCC3)c3cc(Br)ccc3nc21 [Example 46, 1-ethyl-6-bromo-N-[S(+)-1-(cyclohexyl)ethyl]-1H-pyrazolo[3,4-b]quinolin-4-amine]

- pIC50 [2]: 7.74
SMILES: CCn1ncc2c(NCC3CCCCC3)c3cc([S+](C)[O-])ccc3nc21 (centres unmarked) [Example 49, 1-ethyl-6-(methylsulfinyl)-N-(cyclohexylmethyl)-1H-pyrazolo[3,4-b]quinolin-4-amine]

- pIC50 [2]: 8.04
SMILES: CCn1ncc2c(N[C@@H](C)C3CCCCC3)c3cc(-n4cc(C)cn4)ccc3nc21 [Example 50, 1-ethyl-6-(4-methyl-1-pyrazolyl)-N-[S(+)-1-(cyclohexyl)ethyl]-1H-pyrazolo[3,4-b]quinolin-4-amine]

- pIC50 [2, 4]: 9.70
- pIC50 [2, 5]: 9.57
SMILES: CCn1ncc2c(N[C@@H](C)C3CCCCC3)c3cc(-n4cccn4)ccc3nc21 [Example 52, 1-ethyl-6-(1-pyrazolyl)-N-[S(+)-1-(cyclohexyl)ethyl]-1H-pyrazolo[3,4-b]quinolin-4-amine]

- pIC50 [2, 4]: 8.23
- pIC50 [2, 5]: 8.06
SMILES: CC[C@H](Nc1c2cc([N+](=O)[O-])ccc2nc2c1cnn2CC)C1CCCCC1 [Example 54, 1-ethyl-6-nitro-N-[S(+)-1-(cyclohexyl)propyl]-1H-pyrazolo[3,4-b]quinolin-4-amine]

SMILES: C=Cc1ccc2nc3c(cnn3CC)c(N[C@@H](C)C3CCCCC3)c2c1 [Example 55, 1-ethyl-6-(ethenyl)-N-[S(+)-1(cyclohexyl)ethyl]-1H-pyrazolo[3,4-b]quinolin-4-amine]
- Percent Inhibition cGMP-PDE V ([2]; 0.001 μM): 58%
- Percent Inhibition cGMP-PDE V ([2]; 0.01 μM): 91%
- Percent Inhibition cGMP-PDE V ([2]; 0.1 μM): 96%
